# Results: patent US7396837B2, “Antitumoral analogs of lamellarins” (Pharma Mar, S.A.U., priority 2002, dated 2008)
# What was measured:
# Assay type in all cases: cell-based
# IGROV-ET = test: SRB colorimetric cell growth inhibition assay, IGROV-ET (ET-743 resistant); settings: Homo sapiens
# Outline: (§1)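 Human tumour cells continuously exposed to compound in 96-well culture; growth and viability quantified colorimetrically by sulforhodamine B staining. Mean ± SD from triplicate wells; GI (growth inhibition), TGI (total growth inhibition, cytostatic) and LC (cell killing, cytotoxic) parameters derived.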
# LoVo = test: SRB colorimetric cell growth inhibition assay, LoVo; settings: Homo sapiens, LoVo
# Outline: as §1
# IGROV = test: SRB colorimetric cell growth inhibition assay, IGROV; settings: Homo sapiens, IGROV
# Outline: as §1
# LoVo-Dox = test: SRB colorimetric cell growth inhibition assay, LoVo-Dox (MDR); settings: Homo sapiens
# Outline: as §1
# K-562 = test: SRB colorimetric cell growth inhibition assay, K-562; settings: Homo sapiens
# Outline: as §1
# HT-29 = test: SRB colorimetric cell growth inhibition assay, HT-29; settings: Homo sapiens
# Outline: as §1
# LNCaP = test: SRB colorimetric cell growth inhibition assay, LNCaP; settings: Homo sapiens, LNCaP
# Outline: as §1
# SK-MEL-28 = test: SRB colorimetric cell growth inhibition assay, SK-MEL-28; settings: Homo sapiens
# Outline: as §1
# PANC-1 = test: SRB colorimetric cell growth inhibition assay, PANC-1; settings: Homo sapiens
# Outline: as §1
# H-MEC-1 = test: SRB colorimetric cell growth inhibition assay, H-MEC-1; settings: Homo sapiens, HMEC-1, H-MEC-1
# Description: (§2) Inhibition of Cell Growth by Colorimetric Assay.
# (§3) A colorimetric type of assay, using sulforhodamine B (SRB) reaction has been adapted for a quantitative measurement of cell growth and viability (following the technique described by P. A. Skehan, et al., J. Natl. Cancer Inst. 1990, 82, 1107-1112).
# (§4) This form of assay employs 96 well cell culture microplates of 9 mm diameter (T. Mosmann et al., J. of Immunological Methods 1983, 65, 55-63; G. T. Faircloth et al., J. of Tissue and Culture Methods 1988, 11, 201-205).
# (§5) Most of the cell lines are obtained from American Type Culture Collection (ATCC) derived from different human cancer types.
# (§6) The values for mean +/− SD of data from triplicate wells are calculated. Some parameters for cellular responses can be calculated: GI=growth inhibition, TGI=total growth inhibition (cytostatic effect) and LC=cell killing (cytotoxic effect).
# [1] = as above; settings: human, LC50 H-MEC-1
# Description: as §2, §3, §4, §5, §6
# DU-145 = test: SRB colorimetric cell growth inhibition assay, DU-145; settings: Homo sapiens
# Outline: as §1
# A-549 = test: SRB colorimetric cell growth inhibition assay, A-549; settings: Homo sapiens
# Outline: as §1
structure (smiles),measurement,setting,value
COc1cc(-c2c3n(c4c(=O)oc5cc(OC(=O)[C@@H](N)C(C)C)c(OC)cc5c24)CCc2c-3cc(OC)c(OC)c2OC(=O)[C@@H](N)C(C)C)ccc1OC(=O)[C@@H](N)C(C)C [Compound 128],GI50,"IGROV-ET; IGROV-ET, GI=growth inhibition, read-out: GI50 IGROV-ET",689 nM
same,IC (TGI),"IGROV-ET; IGROV-ET, TGI=total growth inhibition (cytostatic effect), read-out: TGI IGROV-ET",2.26 µM
same,CC50,"IGROV-ET; read-out: LC50 IGROV-ET, IGROV-ET, LC=cell killing (cytotoxic effect)",7.59 µM
same,CC50,"LoVo; read-out: LC50 LOVO, LOVO, cell killing (cytotoxic effect)",4.3 µM
same,GI50,"LoVo; GI=growth inhibition, read-out: GI50 LOVO",854 nM
same,IC (TGI),"LoVo; total growth inhibition (cytostatic effect), read-out: TGI LOVO",1.92 µM
same,CC50,"IGROV; read-out: LC50 IGROV, IGROV, LC=cell killing (cytotoxic effect)",5.7 µM
same,GI50,"IGROV; GI=growth inhibition, read-out: GI50 IGROV",639 nM
same,IC (TGI),"IGROV; TGI=total growth inhibition (cytostatic effect), read-out: TGI IGROV",1.98 µM
same,GI50,"LoVo-Dox; LOVO-DOX, GI=growth inhibition, read-out: GI50 LOVO-DOX",403 nM
same,IC (TGI),"LoVo-Dox; LOVO-DOX, total growth inhibition (cytostatic effect), read-out: TGI LOVO-DOX",1.49 µM
same,CC50,"LoVo-Dox; read-out: LC50 LOVO-DOX, LOVO-DOX, cell killing (cytotoxic effect)",4.66 µM
same,GI50,"K-562; K562, K-562, GI=growth inhibition, read-out: GI50 K-562",1110 nM
same,IC (TGI),"K-562; K562, K-562, total growth inhibition (cytostatic effect), read-out: TGI K-562",2.98 µM
same,CC50,"K-562; K562, read-out: LC50 K-562, K-562, cell killing (cytotoxic effect)",8.01 µM
same,GI50,"HT-29; HT-29, HT-29, GI=growth inhibition, read-out: GI50 HT-29",1950 nM
same,IC (TGI),"HT-29; HT-29, HT-29, total growth inhibition (cytostatic effect), read-out: TGI HT-29",3.54 µM
same,CC50,"HT-29; HT-29, read-out: LC50 HT-29, HT-29, cell killing (cytotoxic effect)",6.44 µM
same,GI50,"LNCaP; LN-caP, GI=growth inhibition, read-out: GI50 LN-caP",1260 nM
same,IC (TGI),"LNCaP; LN-caP, TGI=total growth inhibition (cytostatic effect), read-out: TGI LN-caP",2.69 µM
same,CC50,"LNCaP; read-out: LC50 LN-caP, LN-caP, LC=cell killing (cytotoxic effect)",5.71 µM
same,GI50,"SK-MEL-28; SK-MEL-28, MEL-28, GI=growth inhibition, read-out: GI50 MEL-28",1570 nM
same,IC (TGI),"SK-MEL-28; SK-MEL-28, MEL-28, TGI=total growth inhibition (cytostatic effect), read-out: TGI MEL-28",3.03 µM
same,CC50,"SK-MEL-28; SK-MEL-28, read-out: LC50 MEL-28, MEL-28, LC=cell killing (cytotoxic effect)",5.86 µM
same,GI50,"PANC-1; PANC-1, PANC-1, GI=growth inhibition, read-out: GI50 PANC-1",888 nM
same,IC (TGI),"PANC-1; PANC-1, PANC-1, total growth inhibition (cytostatic effect), read-out: TGI PANC-1",2.31 µM
same,CC50,"PANC-1; PANC-1, read-out: LC50 PANC-1, PANC-1, cell killing (cytotoxic effect)",5.99 µM
same,GI50,H-MEC-1; GI=growth inhibition,1530 nM
same,IC (TGI),"H-MEC-1; TGI=total growth inhibition (cytostatic effect), read-out: TGI H-MEC-1",3.16 µM
same,CC50,[1],6.53 µM
same,GI50,"DU-145; DU-145, DU-145, GI=growth inhibition, read-out: GI50 DU-145",1330 nM
same,IC (TGI),"DU-145; DU-145, DU-145, TGI=total growth inhibition (cytostatic effect), read-out: TGI DU-145",2.48 µM
same,CC50,"DU-145; DU-145, read-out: LC50 DU-145, DU-145, LC=cell killing (cytotoxic effect)",4.62 µM
same,GI50,"A-549; A549, A-549, GI=growth inhibition, read-out: GI50 A-549",1610 nM
same,IC (TGI),"A-549; A549, A-549, total growth inhibition (cytostatic effect), read-out: TGI A-549",3.23 µM
same,CC50,"A-549; A549, read-out: LC50 A-549, A-549, cell killing (cytotoxic effect)",6.45 µM
